Test [1] relates to Radical scavenging activity. Put plainly: Effect on CumOOH-induced oxidative damage of herring sperm DNA assessed as reduction in 8-OHdG level. The test is classed as functional. Set-up: scale not given: the % may be the effect or the level left. The settings on record: Clupea.
For test [2], the system named is Radical scavenging activity. The test can be described thus: Effect on glutathione/ferric ion-induced oxidative damage of herring sperm DNA assessed as reduction in 8-OHdG level. It is filed as functional. Also on record: scale not given: the % may be the effect or the level left. The settings on record: Clupea.

The source made the active and inactive calls. No cut-off for these calls is given here.

With `COc1ccc(C2CSc3cc(O)ccc3O2)cc1` (configuration not stated), the result in test [1] was inactive. Take `Oc1cc(O)c2c(c1)OC(c1ccc(O)c(O)c1)CS2` (configuration not stated): the results for the Activity in test [2] and in test [1] were 82% and 30%, respectively. On to `COc1cc(OC)c2c(c1)OC(c1ccc(O)c(O)c1)CS2` (configuration not stated), for which the Activity in test [1] came out at 30%. With `Oc1cc(O)c2c(c1)OC(c1ccc(O)c(O)c1)C(O)C2` (racemic), the Activity in test [2] stood at 36%; in test [1], 32%. For the molecule `COc1ccc(C2CSc3c(O)cc(O)cc3O2)cc1` (configuration not stated), the outcome in test [2] was Active. In test [1], the result was inactive. Regarding VITAMIN E, the Activity in test [2] came to 33%; in test [1], 61%.

Regarding `COc1ccc(C2CSc3ccc(O)cc3O2)cc1` (configuration not stated), in test [2], the result was Active. In addition, the outcome in test [1] was inactive.

The values are drawn from ChEMBL document CHEMBL1146934, “Polyhydroxylated 4-thiaflavans as multipotent antioxidants: protective effect on oxidative DNA damage in vitro” (Bioorg Med Chem Lett, 2006).
